Results reported in US8507464B2, “Phosphoramidate alkylator prodrugs” (Threshold Pharmaceuticals, Inc., priority 2005, dated 2013).
Like-named read-outs stand apart in the source and are kept apart here.

Legend:
[1] = assay type: physicochemical; conditions: glassy carbon, Ag/AgCl reference
NCI-H460 cells [2] = test: Antiproliferation assay (Alamar Blue), anoxia vs air; conditions: Homo sapiens, NCI-H460, 2 h
H460 cell line = test: Anti-proliferation assay, hypoxia vs normoxia (Table 1A); conditions: for IC50: Homo sapiens; for HCR P: ratio of IC50 in normoxia and hypoxia
NCI-H460 cells [3] = test: Antiproliferation assay - oxygen dependence; assay type: cell-based, human
Text: . […] The calculated IC50 values (μM) are tabulated in Table Y1 (H460 cells) or Table Y2 (HT29 cells) below.

[4] = read-out: IC50 H460 Air, air, 2 h exposure
[5] = read-out: IC50 H460 Anoxia, anoxia, 2 h exposure
[6] = NCI-H460, read-out: Hypoxia P (proliferation IC50)
[7] = NCI-H460, read-out: Normoxia P (proliferation IC50)
[8] = Homo sapiens, NCI-H460, read-out: IC50 in H460 cells, 0.6% O2

Compound: O=[N+]([O-])c1ncc[nH]1 [2-NO2-Imidazole, reference compound]
- Reduction Potentials, 100 mV/sec ([1]; scan rate 100 mV/sec): −634 mV
- Reduction Potentials, 10,000 mV/sec ([1]; scan rate 10,000 mV/sec): −693 mV

Compound: CC(OP(N)(=O)N(CCCl)CCCl)c1ncc([N+](=O)[O-])n1C (stereo not drawn) [Compound 2]
- IC50 (NCI-H460 cells [2]; [4]): > 100 µM
- IC50 (NCI-H460 cells [2]; [5]): 8 µM
- IC50 (H460 cell line; [6]): 8 µM
- IC50 (H460 cell line; [7]): > 100 µM
- HCR P (H460 cell line): >12

Compound: Cn1c([N+](=O)[O-])cnc1COc1ccc(COP(N)(=O)N(CCCl)CCCl)cc1F (stereo not drawn) [Compound 3]
- IC50 (NCI-H460 cells [2]; [4]): > 100 µM
- IC50 (NCI-H460 cells [2]; [5]): > 20 µM
- IC50 (H460 cell line; [6]): > 20 µM
- IC50 (H460 cell line; [7]): > 100 µM
- HCR P (H460 cell line): >5

Compound: CN(C)P(=O)(OCc1cnc([N+](=O)[O-])n1C)N(CCCl)CCCl (stereo not drawn) [Compound 4]
- IC50 (NCI-H460 cells [2]; [4]): > 100 µM
- IC50 (NCI-H460 cells [2]; [5]): 40 µM
- IC50 (H460 cell line; [6]): 40 µM
- IC50 (H460 cell line; [7]): > 100 µM
- HCR P (H460 cell line): >2

Compound: CN(CCCl)P(=O)(OCc1ccc([N+](=O)[O-])o1)N(C)CCCl [Compound 8]
- IC50 (NCI-H460 cells [2]; [4]): 0.6 µM
- IC50 (NCI-H460 cells [2]; [5]): 0.013 µM
- IC50 (H460 cell line; [6]): 0.01 µM
- IC50 (H460 cell line; [7]): 0.6 µM
- HCR P (H460 cell line): 60

Compound: CN(CCCl)P(=O)(OCc1ncc([N+](=O)[O-])n1C)N(C)CCCl [Compound 9]
- IC50 (NCI-H460 cells [2]; [4]): > 100 µM
- IC50 (NCI-H460 cells [2]; [5]): > 10 µM
- IC50 (H460 cell line; [6]): > 10 µM
- IC50 (H460 cell line; [7]): > 100 µM
- HCR P (H460 cell line): >10

Compound: O=[N+]([O-])c1ccc(COP(=O)(N(CCCl)CCCl)N2CCCC2)o1 (stereo not drawn) [Compound 11]
- IC50 (NCI-H460 cells [2]; [4]): > 100 µM
- IC50 (NCI-H460 cells [2]; [5]): 5.2 µM
- IC50 (H460 cell line; [6]): 5.2 µM
- IC50 (H460 cell line; [7]): > 100 µM
- HCR P (H460 cell line): >20

Compound: O=[N+]([O-])c1ccc(COP(=O)(N(CCCl)CCCl)N2CCOCC2)o1 (stereo not drawn) [Compound 12]
- IC50 (NCI-H460 cells [2]; [4]): > 100 µM
- IC50 (NCI-H460 cells [2]; [5]): 1.7 µM
- IC50 (H460 cell line; [6]): 1.7 µM
- IC50 (H460 cell line; [7]): > 100 µM
- HCR P (H460 cell line): >50

Compound: CC(C)N(CCCl)P(=O)(OCc1cnc([N+](=O)[O-])n1C)N(CCCl)C(C)C [Compound 14]
- IC50 (NCI-H460 cells [2]; [4]): > 100 µM
- IC50 (NCI-H460 cells [2]; [5]): 8.5 µM
- IC50 (H460 cell line; [6]): 8.5 µM
- IC50 (H460 cell line; [7]): > 100 µM
- HCR P (H460 cell line): >12

Compound: CCN(CCCl)P(=O)(OCc1cnc([N+](=O)[O-])n1C)N(CC)CCCl [Compound 15]
- IC50 (NCI-H460 cells [2]; [4]): 1 µM
- IC50 (NCI-H460 cells [2]; [5]): 0.08 µM
- IC50 (H460 cell line; [6]): 0.08 µM
- IC50 (H460 cell line; [7]): 1 µM
- HCR P (H460 cell line): 12

Compound: CN(CCCl)P(=O)(OCc1c(F)c(F)c(OCc2ncc([N+](=O)[O-])n2C)c(F)c1F)N(C)CCCl [Compound 17]
- IC50 (NCI-H460 cells [2]; [4]): 9 µM
- IC50 (NCI-H460 cells [2]; [5]): 1 µM
- IC50 (H460 cell line; [6]): 1 µM
- IC50 (H460 cell line; [7]): 9 µM
- HCR P (H460 cell line): 9

Compound: COc1cc(COP(=O)(N(C)CCCl)N(C)CCCl)ccc1OCc1cnc([N+](=O)[O-])n1C [Compound 18]
- IC50 (NCI-H460 cells [2]; [4]): 9 µM
- IC50 (NCI-H460 cells [2]; [5]): 3.4 µM
- IC50 (H460 cell line; [6]): 3.4 µM
- IC50 (H460 cell line; [7]): 9 µM
- HCR P (H460 cell line): 3

Compound: O=[N+]([O-])c1ccc(COP(=O)(NCCCCNP(=O)(OCc2ccc([N+](=O)[O-])o2)N(CCCl)CCCl)N(CCCl)CCCl)o1 (stereo not drawn) [Compound 20]
- IC50 (H460 cell line; [6]): 1 µM
- IC50 (H460 cell line; [7]): 8.5 µM
- HCR P (H460 cell line): 8

Compound: O=[N+]([O-])c1ccc(COP(=O)(NCCNP(=O)(OCc2ccc([N+](=O)[O-])o2)N(CCCl)CCCl)N(CCCl)CCCl)o1 (stereo not drawn) [Compound 21]
- IC50 (H460 cell line; [6]): 0.25 µM
- IC50 (H460 cell line; [7]): 7.8 µM
- HCR P (H460 cell line): 26

Compound: Cn1c(COc2ccc(COP(N)(=O)N(CCCl)CCCl)cc2F)cnc1[N+](=O)[O-] (stereo not drawn) [Compound 22]
- IC50 (NCI-H460 cells [2]; [4]): 16 µM
- IC50 (NCI-H460 cells [2]; [5]): 0.7 µM
- IC50 (H460 cell line; [6]): 0.7 µM
- IC50 (H460 cell line; [7]): 16 µM
- HCR P (H460 cell line): 23

Compound: Cn1c(COc2ccc(COP(=O)(NCCCl)NCCCl)cc2F)cnc1[N+](=O)[O-] [Compound 27]
- IC50 (NCI-H460 cells [2]; [4]): 100 µM
- IC50 (H460 cell line; [6]): 2.5 µM
- IC50 (H460 cell line; [7]): 100 µM
- HCR P (H460 cell line): 40

Compound: O=[N+]([O-])c1ccc(COCOP(=O)(NCCCl)NCCCl)o1 [Compound 31]
- IC50 (NCI-H460 cells [2]; [4]): > 100 µM
- IC50 (NCI-H460 cells [2]; [5]): 83 µM
- IC50 (H460 cell line; [6]): 83 µM
- IC50 (H460 cell line; [7]): > 100 µM
- HCR P (H460 cell line): >1

Compound: Cn1c(COP(=O)(NCCCl)NCCCl)nc(Br)c1[N+](=O)[O-] [Compound 32]
- IC50 (NCI-H460 cells [2]; [4]): 100 µM
- IC50 (NCI-H460 cells [2]; [5]): 50 µM
- IC50 (H460 cell line; [6]): 50 µM
- IC50 (H460 cell line; [7]): 100 µM
- HCR P (H460 cell line): 2

Compound: C[C@H](CCl)NP(=O)(N[C@H](C)CCl)OCc1ccc(-c2ccc([N+](=O)[O-])s2)cc1 [Compound 52]
- IC50 (NCI-H460 cells [2]; [4]): 20 µM
- IC50 (NCI-H460 cells [2]; [5]): 15 µM
- IC50 (NCI-H460 cells [3]; [8]): 10 µM
- IC50 (NCI-H460 cells [3]; Homo sapiens, NCI-H460; read-out: IC50 in H460 cells, Air): 20 µM

Compound: O=[N+]([O-])c1ccc(-c2ccc(COP(=O)(NCCBr)NCCBr)cc2)s1 [Compound 53]
- IC50 (NCI-H460 cells [2]; [4]): 10 µM
- IC50 (NCI-H460 cells [2]; [5]): 3 µM
- IC50 (NCI-H460 cells [3]; [8]): 5 µM
- IC50 (NCI-H460 cells [3]; Homo sapiens, NCI-H460, read-out: IC50 in H460 cells, Air): 10 µM
